# In patent US7183318B2, “Substituted cyclic compounds, preparation method and pharmaceutical compositions containing them” (Les Laboratoires Servier, priority 1998, dated 2007):
row,SMILES,melting point [°C]
1,"COC(=O)c1ccc2occ(CCNC(=O)C3CCCC3)c2c1 [Example 64, Methyl 3-{2-[(cyclopentylcarbonyl)amino]ethyl}1-benzofuran-5-carboxylate]",122 to 123
2,"NC(=O)c1ccc2occ(CCNC(=O)C3CC3)c2c1 [Example 68, 3-{2-[(Cyclopropylcarbonyl)amino]ethyl}-1-benzofuran-5-carboxamide]",209 to 210
3,"COC(=O)c1ccc2occ(CCNC(=O)C3CC3)c2c1 [Example 65, Methyl 3-{2-[(cyclopropylcarbonyl)amino]ethyl}-1-benzofuran-5-carboxylate]",154 to 155
4,"COC(=O)Nc1ccc2occ(CCNC(C)=O)c2c1 [Example 58, Methyl N-{3-[2-(acetylamino)ethyl]benzo[b]furan-5-yl}carbamate]",138 to 140

# Next, values leading:
row,melting point [°C],SMILES
1,158 to 159,"CNC(=O)c1ccc2occ(CCNC(C)=O)c2c1 [Example 71, 3-[2-(Acetylamino)ethyl]-N-methyl-1-benzofuran-5-carboxamide]"
2,110 to 112,"NC(=O)c1ccc2occ(CCNC(=O)c3ccco3)c2c1 [Example 69, 3-[2-(2-Furoylamino)ethyl]-1-benzofuran-5-carboxamide]"
3,146 to 148,"CC(=O)NCCc1coc2ccc(NC(=O)OC(C)(C)C)cc12 [Example 76, tert-Butyl 3-[2-(acetylamino)ethyl]-1-benzofuran-5-yl-carbamate]"
4,170 to 171,"CNC(=O)c1ccc2occ(CCNC(=O)C3CCCC3)c2c1 [Example 72, 3-{2-[(Cyclopentylcarbonyl)amino]ethyl}-N-methyl-1-benzofuran-5-carboxamide]"
